Measured values reported in publication PMC8748404 (Angewandte Chemie (International ed. in English), 2021).
pIC50, pKi: −log10 of the molar value.

Assays:
human DHFR = molecular target: T1, human DHFR (Homo sapiens, UniProt P00374); test: inhibition of human DHFR; format: biochemical
T1 sequence (P00374 1-187): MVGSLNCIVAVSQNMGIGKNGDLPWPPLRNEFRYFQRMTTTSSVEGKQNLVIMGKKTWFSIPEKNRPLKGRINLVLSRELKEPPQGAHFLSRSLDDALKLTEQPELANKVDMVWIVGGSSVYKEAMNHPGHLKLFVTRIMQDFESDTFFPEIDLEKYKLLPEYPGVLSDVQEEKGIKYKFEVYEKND

[1] = molecular target: E. coli dihydrofolate reductase (eDHFR) (Escherichia coli, UniProt P0ABQ4); test: inhibition assays of eDHFR; format: biochemical; conditions: eDHFR inhibition assay
eDHFR = eDHFR (Escherichia coli, UniProt P0ABQ4); test: FP assay, displacement of fluorescein-labeled methotrexate; format: binding, E. coli; conditions: displacement of fluorescein-labeled MTX from eDHFR
HaloTag-eDHFR = HaloTag-eDHFR (Escherichia coli, UniProt P0ABQ4); test: DNA-based ligand displacement screen of LOPAC library with DNA-linked TMP probe; format: binding, E. coli; conditions: LOPAC1280 screen against HaloTag-eDHFR
BRD7/9 = test: concurrent DNA-based displacement screening, DNA-bromosporine probe; format: binding; conditions: screen of 1000 compounds, TargetMol Bioactive Compound Library
[2] = test system: PB1-BD2, PB1-BD4, PB1-BD5, BRD7 and BRD9; test: concurrent screening against five bromodomain proteins; format: binding; conditions: five bromodomain proteins screened concurrently
PB1-BD2/4/5 = test: DNA-based ligand displacement assay, IC50 determination of hit compounds; format: binding

Sequence of eDHFR (P0ABQ4 whole entry): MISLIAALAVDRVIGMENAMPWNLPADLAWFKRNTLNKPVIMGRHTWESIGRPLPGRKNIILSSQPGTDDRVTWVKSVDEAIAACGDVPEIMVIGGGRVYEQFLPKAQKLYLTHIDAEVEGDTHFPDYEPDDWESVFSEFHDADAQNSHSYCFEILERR
Sequence of HaloTag-eDHFR (P0ABQ4 whole entry): as above
Sequence of E. coli dihydrofolate reductase (eDHFR) (P0ABQ4 whole entry): as above

Row | SMILES | inhibition of human DHFR (human DHFR) | pKi [1] | pIC50 (eDHFR) | recovery of DNA-linked probe (HaloTag-eDHFR) | displacement of DNA-bromosporine probe (BRD7/9) | selectivity in concurrent screen [2] | binding to respective bromodomains (IC50 determination) (PB1-BD2/4/5)
1 | CN(CCOc1ccc(C[C@H](Nc2ccccc2C(=O)c2ccccc2)C(=O)O)cc1)c1ccccn1 [GW1929] | modest inhibition | 6.39 | 5.10 | low recovery |  |  | 
2 | CN1C(=O)c2sccc2N(C)c2nc(Nc3ccc(S(N)(=O)=O)cc3)ncc21 [XMU-MP-1] |  |  |  |  | significantly displaced | selectivity towards BRD7/9 over PB1-BD2/4/5 | 
3 | Cc1cc(C)c(Nc2ccnc(Nc3ccc(C#N)cc3)n2)c(C)c1 [dapivirine] |  |  |  |  |  | selectivity for PB1-BD4 | potent binding
